The source of these data is PMC9385959, “Mammalian derived lipocalin and secretoglobin respiratory allergens strongly bind ligands with potentially immune modulating properties” (Frontiers in Allergy, 2022).

Several values for one entry are separate records, joined by “and”; a condition that tells them apart may be missing. Identical values can stand only once. Like-named read-outs stand apart in the source and are kept apart here.

In one series the target is T1, Fel d 1 (Felis catus, UniProt P30438+P30440).
T1 construct: polyhistidine tag (C); made in house; host or cells: E. coli Rosetta-gami 2
T1 sequence (P30438+P30440 with tags, fused parts or gaps): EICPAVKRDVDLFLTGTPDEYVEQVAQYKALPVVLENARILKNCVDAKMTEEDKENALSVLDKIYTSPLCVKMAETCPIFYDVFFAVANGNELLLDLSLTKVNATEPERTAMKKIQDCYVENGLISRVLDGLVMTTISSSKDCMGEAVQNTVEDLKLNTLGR
The series can be described thus: Fluorochrome binding to Fel d 1 (emission spectra and titration). On the set-up: species or system cat. Conditions: for Increase of fluorescence intensity upon binding: 5 μM Fel d 1 with 5 μM fluorochrome. Here is the method: (§1) Stock solutions were prepared at a concentration of 10 mM in 100% ethanol for the fluorochromes 1-aminoanthracene (1-AMA), 8-anilino-1-naphthalensulfonic acid (1,8-ANS) and for all ligands, and in 100% methanol for n-phenyl-1-naphthylamine (1-NPN), respectively. Iron catecholate ligands (siderophores) were prepared as previously described ([46]). Fluorochrome-protein complexes were analyzed at an equimolar concentration of 5 μM in PBS with 5% ethanol in a volume of 100 μL per well in black 96-well non-binding microplates (Greiner Bio-One GmbH, Frickenhausen, Germany). Solutions containing only protein or the respective fluorescent probe in PBS with 5% ethanol served as controls. Fluorochrome-protein complexes were incubated with orbital shaking for 10 min at 500 rpm at room temperature (RT) before measurement using the fluorescence reader TECAN Infinite 200 Pro (Tecan Trading AG, Switzerland). Excitation wavelengths were fixed at 380 nm for 1-AMA and 1,8-ANS, and 337 nm for 1-NPN. Fluorescence emission spectra were recorded in 5 nm steps between 420 and 560 nm for 1-AMA and 1,8-ANS and between 380 and 500 nm for 1-NPN. The establishment of fluorescent quenching assay parameters for each allergen is explained in the results Section Fluorescence-quenching assay set up. Binding affinities were analyzed by non-linear regression in GraphPad Prism Version 9.3.1 (GraphPad Software, LLC). For the ligand competition assays, ligands were added to fluorochrome-allergen complexes with a final buffer composition of 5% ethanol in PBS in a volume of 100 μL and incubated for 30 min at 500 rpm at RT and further equilibrated for another 30 min without shaking before fluorescence measurement.
(§2) We established four specific parameters for each allergen to set up a fluorescence quenching assay for screening a large array of potential ligands: (i) a compatible fluorochrome, (ii) the optimal emission wavelength to analyze the fluorescence intensities of the fluorochrome-allergen complex, (iii) the binding affinities of the fluorochrome-allergen complex (Kd values) and (iv) optimal fluorochrome concentrations (EC50 values).
(§3) For each allergen, we identified a suitable fluorescence probe by adding equimolar concentrations of either 1-AMA or 1,8-ANS to the recombinant proteins. […] 1-AMA was chosen for the guinea pig lipocalin Cav p 1 isoallergens, rabbit lipocalin Ory c 2, and rabbit secretoglobin Ory c 3. Fluorescence intensities increased 20–60-fold upon binding. While the emission maxima shifted from 565 to 485 nm for lipocalin fluorochrome-allergen pairs, the blue shift was less pronounced for the Ory c 3 secretoglobin-1-AMA complex to 505 nm (Figure 4B). […] Respective Kd were calculated after background subtraction (Figure 4B). As ethanol gave a high background with 1-NPN, these experiments were carried out with methanol to reduce the signal-to-noise-ratio.
(§4) We evaluated the binding affinities of the fluorochromes to the allergens by dose-dependent titration curves. Increasing fluorochrome concentrations were added to a fixed protein concentration of 5 μM until saturation (Figure 5). Fluorescence intensities were recorded at specific emission maxima for each fluorochrome-allergen complex, determined using the emission spectra shown in Figure 4. We analyzed the specific binding of fluorochrome-allergen complexes by non-linear regression and calculated equilibrium dissociation constants (Kd) and EC50 values (Table 2). EC50 values are equal to fluorochome concentrations in which half of the allergen binding sites are saturated and these concentrations were used in subsequent ligand competition assays. We chose a one-site specific binding model for all allergens, except for human LCN1, where multiple binding site analysis emerged as the model of best fit and two Kd values were calculated. Evidence for internal and external binding sites for 1,8-ANS and LCN1 were already reported ([58]).

For the next series, the target named is T2, Can f 1 (Canis lupus familiaris, UniProt O18873).
T2 construct: made in house; host or cells: E. coli Rosetta-gami 2(DE3)
T2 sequence (O18873 19-174): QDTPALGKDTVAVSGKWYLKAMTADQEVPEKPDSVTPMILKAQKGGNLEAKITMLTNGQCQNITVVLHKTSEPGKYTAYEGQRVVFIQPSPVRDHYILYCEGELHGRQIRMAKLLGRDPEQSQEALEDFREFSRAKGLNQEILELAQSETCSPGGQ
The series can be described thus: Fluorochrome binding to Can f 1 (emission spectra and titration). On the set-up: species or system dog. Here is the method: as §1, with “measurement. […]” for “measurement.”
(§5) For each allergen, we identified a suitable fluorescence probe by adding equimolar concentrations of either 1-AMA or 1,8-ANS to the recombinant proteins. […] Fluorescence intensities increased 20–60-fold upon binding. […] Respective Kd were calculated after background subtraction (Figure 4B). […]
(§6) We evaluated the binding affinities of the fluorochromes to the allergens by dose-dependent titration curves. […]

In another series the target is T3, Fel d 4 (Felis catus, UniProt Q5VFH6).
T3 construct: polyhistidine tag (C); made in house; host or cells: E. coli Rosetta-gami 2
T3 sequence (Q5VFH6 16-186): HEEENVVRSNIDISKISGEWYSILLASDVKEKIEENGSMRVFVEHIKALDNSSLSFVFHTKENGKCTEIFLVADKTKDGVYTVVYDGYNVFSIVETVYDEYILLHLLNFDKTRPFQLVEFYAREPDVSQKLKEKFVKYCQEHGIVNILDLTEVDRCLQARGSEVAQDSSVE
The series can be described thus: Fluorochrome binding to Fel d 4 (emission spectra and titration). Set-up: species or system cat. Conditions: for Increase of fluorescence intensity upon binding: 5 μM Fel d 4 with 5 μM fluorochrome. The method, then: as §1, §2, §3, §4

Another series has as its target T4, human LCN1 (Homo sapiens, UniProt P31025).
T4 construct: made in house; host or cells: E. coli Rosetta-gami 2(DE3)
The series can be described thus: Fluorochrome binding to LCN1 (emission spectra and titration). Conditions: for Kd: multiple binding site analysis. The method, then: as §1, §2
as §3, with “As ethanol gave a high background with 1-NPN, these experiments were carried out with methanol to reduce the signal-to-noise-ratio.” left out
We evaluated the binding affinities of the fluorochromes to the allergens by dose-dependent titration curves. […] Fluorescence intensities were recorded at specific emission maxima for each fluorochrome-allergen complex, determined using the emission spectra shown in Figure 4. We analyzed the specific binding of fluorochrome-allergen complexes by non-linear regression and calculated equilibrium dissociation constants (Kd) and EC50 values (Table 2). […] We chose a one-site specific binding model for all allergens, except for human LCN1, where multiple binding site analysis emerged as the model of best fit and two Kd values were calculated. […]

The target in another series is T5, Can f 6 (Canis lupus familiaris, UniProt H2B3G5).
T5 construct: polyhistidine tag (C); made in house; host or cells: E. coli Rosetta-gami 2
T5 sequence (H2B3G5 16-190): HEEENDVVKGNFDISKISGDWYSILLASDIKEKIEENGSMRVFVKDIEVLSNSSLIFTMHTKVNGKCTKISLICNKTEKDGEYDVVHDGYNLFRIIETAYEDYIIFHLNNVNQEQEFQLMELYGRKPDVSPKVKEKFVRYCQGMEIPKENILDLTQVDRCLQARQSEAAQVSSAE
The series can be described thus: Fluorochrome binding to Can f 6 (emission spectra and titration). On the set-up: species or system dog. To be noted: for Increase of fluorescence intensity upon binding: 5 μM Can f 6 with 5 μM fluorochrome. Here is the method:
as §1, §2, §3, §4

Another series has as its target Ory c 2. The series can be described thus: Fluorochrome binding to Ory c 2 (emission spectra and titration). Set-up: species or system rabbit. Here is the method:
as §1, with “measurement. […]” for “measurement.”
as §5, §6

The target of a further series is Cav p 1.0201 (Cavia porcellus, UniProt A0A484HRI4). Nature of the series: Fluorochrome binding to Cav p 1.0201 (emission spectra and titration). On the set-up: species or system guinea pig. Conditions: 5 μM Cav p 1.0201. The method, then: as §1, with “For the ligand competition assays, ligands were added to fluorochrome-allergen complexes with a final buffer composition of 5% ethanol in PBS in a volume of 100 μL and incubated for 30 min at 500 rpm at RT and further equilibrated for another 30 min without shaking before fluorescence measurement.” left out
Sequence of Cav p 1.0201 (A0A484HRI4 entry or part of it): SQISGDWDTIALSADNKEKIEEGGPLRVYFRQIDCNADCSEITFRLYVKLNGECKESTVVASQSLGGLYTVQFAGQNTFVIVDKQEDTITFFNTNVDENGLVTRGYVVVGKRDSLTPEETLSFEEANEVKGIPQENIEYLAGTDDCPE

A further series addresses Ory c 3 (Oryctolagus cuniculus, UniProt Q9GK63+Q9GK67). The series can be described thus: Fluorochrome binding to Ory c 3 (emission spectra and titration). Conditions: 5 μM Ory c 3. On the set-up: species or system rabbit. The method, then:
as §1, with “For the ligand competition assays, ligands were added to fluorochrome-allergen complexes with a final buffer composition of 5% ethanol in PBS in a volume of 100 μL and incubated for 30 min at 500 rpm at RT and further equilibrated for another 30 min without shaking before fluorescence measurement.” left out

The target in the next series is Cav p 1.0101 (Cavia porcellus, UniProt A0A484HM70, S19A). Nature of the series: Fluorochrome binding to Cav p 1.0101 (emission spectra and titration). To be noted: 5 μM Cav p 1.0101. On the set-up: species or system guinea pig. Here is the method: as §1, with “For the ligand competition assays, ligands were added to fluorochrome-allergen complexes with a final buffer composition of 5% ethanol in PBS in a volume of 100 μL and incubated for 30 min at 500 rpm at RT and further equilibrated for another 30 min without shaking before fluorescence measurement.” left out
Sequence of Cav p 1.0101 (A0A484HM70 entry or part of it S19A): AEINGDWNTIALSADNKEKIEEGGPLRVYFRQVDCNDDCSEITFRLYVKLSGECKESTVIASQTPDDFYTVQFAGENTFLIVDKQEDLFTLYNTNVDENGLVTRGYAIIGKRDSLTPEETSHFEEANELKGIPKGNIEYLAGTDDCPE

Series [1] is described as follows: Thermal stability by circular dichroism spectroscopy with temperature ramping. To be noted: temperature ramping 20–95°C, 10 μmol/L protein. The series is classed as physicochemical. Here is the method: Secondary protein structure formation and thermal stability of the recombinant proteins were determined by circular dichroism (CD) spectroscopy. Recombinant proteins were diluted with ultrapure water to a concentration of 10 μmol/L in a volume of 300 μL to measure their CD spectra using the Chirascan CD spectrometer (Applied Photophysics). Far-ultraviolet CD spectra were recorded at 180–260 nm (0.8 nm bandwidth, 0.4 s interval, 3 repeats) in a cuvette of 0.1 cm path length. Thermal sensitivity was assessed by ramping temperatures (20–95°C) with an internal temperature probe and continuous CD-signal measurements (ramping rate 0.82°C per minute, no repeats). After 10 min at 95°C another CD spectrum was recorded with 3 repeats, then the temperature was decreased back to 20°C for a final scan with 3 repeats to analyze the refolding capacity. The read-out was converted with respective protein details, such as molecular weight and number of amino acids, into degrees^*cm2^*dmol−1. Chirascan Global 3 Analysis Software (Applied Photophysics) and DichroWeb online server ([36]) with solutions from the CDSSTR method and reference data set 7 ([37]) were used to analyze and interpret CD spectra, measured as a function of temperature.
A general note: CD spectra are sensitive to the conformation of chiral molecules.

Where [2] appears, read: one-site specific binding, read-out: Fluorochrome dissociation constant Kd.
Setting [3] is: read-out: EC50 fluorochrome concentration.

T4 sequence (P31025 19-176): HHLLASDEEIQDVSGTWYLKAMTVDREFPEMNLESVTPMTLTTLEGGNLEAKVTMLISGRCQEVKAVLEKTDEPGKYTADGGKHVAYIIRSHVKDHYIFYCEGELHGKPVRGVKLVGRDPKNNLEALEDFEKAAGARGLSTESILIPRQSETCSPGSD
Sequence of Ory c 3 (Q9GK67 entry or part of it): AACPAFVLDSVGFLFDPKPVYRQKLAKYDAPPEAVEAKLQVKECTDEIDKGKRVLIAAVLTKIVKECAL
Sequence of Ory c 3 (Q9GK63 entry or part of it): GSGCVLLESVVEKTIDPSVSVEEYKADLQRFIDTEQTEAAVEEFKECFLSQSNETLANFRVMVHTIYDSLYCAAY

As to `O=S(=O)(O)c1cccc2cccc(Nc3ccccc3)c12` [1,8-ANS, 8-anilino-1-naphthalensulfonic acid], the Kd at Fel d 1 (5 μM Fel d 1, one-site specific binding, read-out: Fluorochrome dissociation constant Kd) is 149 µM; on Can f 1 (5 μM Can f 1, one-site specific binding, read-out: Fluorochrome dissociation constant Kd), 6.8 µM; at human LCN1 (5 μM LCN1, first binding site, read-out: Fluorochrome dissociation constant Kd), 5 µM; at human LCN1 (5 μM LCN1, second binding site, read-out: Fluorochrome dissociation constant Kd, second binding site), 64.7 µM. Moreover, the EC50 on Fel d 1 (5 μM Fel d 1, read-out: EC50 fluorochrome concentration) came to 99.8 µM; at Can f 1 (5 μM Can f 1, half of the allergen binding sites saturated, read-out: EC50 fluorochrome concentration) it was 6.4 µM; on human LCN1 (5 μM LCN1, read-out: EC50 fluorochrome concentration), 7.1 µM. Further, the “Increase of fluorescence intensity upon binding” value (shortened to “Increase”) is listed as 8 fold at Fel d 1; greater than 100 fold on Can f 1 (5 μM Can f 1 with 5 μM fluorochrome); “neither reacted” on Fel d 4; greater than 100 fold on human LCN1 (5 μM LCN1 with 5 μM fluorochrome); “neither reacted” at Can f 6. The “Kd at the second binding site relative to the first (higher Kd)” value on human LCN1 (LCN1) was found to be 13 fold.
Regarding `Nc1cccc2cc3ccccc3cc12` [1-AMA, 1-aminoanthracene], the “Increase” value at Fel d 1 is reported as “negligible interactions”; in the series on Ory c 2 (5 μM Ory c 2 with 5 μM fluorochrome, range stated for four allergens together), 20–60 fold; at Fel d 4, “neither reacted”; on Can f 6 it was “neither reacted”. Also, the Kd at Ory c 2 (5 μM Ory c 2, one-site specific binding, read-out: Fluorochrome dissociation constant Kd) was 5.7 µM; on Cav p 1.0201 (setting [2]), 13.9 µM; at Ory c 3 (setting [2]) it was 9 µM; on Cav p 1.0101 (setting [2]) it was 6.57 µM and 6.6 µM. Besides, the EC50 on Ory c 2 (5 μM Ory c 2, read-out: EC50 fluorochrome concentration) is 4.2 µM; at Cav p 1.0201 (setting [3]), 9.2 µM; at Ory c 3 (setting [3]), 6.9 µM; at Cav p 1.0101 (setting [3]), 4.95 µM and 5 µM.
As to `c1ccc(Nc2cccc3ccccc23)cc1` [1-NPN, n-phenyl-1-naphthylamine], the EC50 worked out at 21.1 µM on Fel d 1; 28 µM at Fel d 4 (5 μM Fel d 4, read-out: EC50 fluorochrome concentration); 20.7 µM at Can f 6 (5 μM Can f 6, read-out: EC50 fluorochrome concentration). Besides, the Kd came to 35.5 µM at Fel d 1; 81.7 µM at Fel d 4 (5 μM Fel d 4, one-site specific binding, read-out: Fluorochrome dissociation constant Kd); 59.9 µM on Can f 6 (5 μM Can f 6, Figure 5C, read-out: Kd, one-site fit model of total and non-specific binding); 34.9 µM on Can f 6 (5 μM Can f 6, one-site specific binding, read-out: Fluorochrome dissociation constant Kd). Further, the “Increase” value on Fel d 1, at Fel d 4 and at Can f 6 was 2–3 fold throughout.
“LCN1: recombinant human lipocalin-1 (tear lipocalin, von Ebner's gland protein), non-allergenic control, produced in E. coli”: the Melting point in series [1] turned out to be 74.8 ± 0.2 C°.
